Measured values: patent publication US20260317344A1, “EGFR INHIBITORS FOR TREATING DISEASE” (BLOSSOMHILL THERAPEUTICS, INC., priority 2023, published 2026)

What was measured:
EGFR (L858R) = EGFR (L858R) (Homo sapiens, UniProt P00533, L858R); assay: HotSpot radiometric kinase assay, inhibition of EGFR L858R mutant; format: biochemical; conditions: 33P ATP, room temperature, 120 m
Method: (§1) Biochemical Assays for inhibition of wild-type and mutant EGFRs
(§2) Briefly, specific kinase/substrate pairs along with required cofactors were prepared in reaction buffer; 20 mM HEPES pH 7.5, 10 mM […], 1 mM EGTA, 0.02% Brij35, 0.02 mg/ml BSA, 0.1 mM Na3VO4, 2 mM DTT, 1% DMSO. Compounds were delivered into the reaction, followed ~20 minutes later by addition of a mixture of ATP (Sigma, St. Louis MO) and ^33P ATP (Perkin Elmer, Waltham MA) to a final concentration of […]. Reactions were carried out at room temperature for 120 m, followed by spotting of the reactions onto P81 ion exchange filter paper (Whatman Inc., Piscataway, NJ). Unbound phosphate was removed by extensive washing of filters in 0.75% phosphoric acid. […] IC50 values and curve fits were obtained using Prism (GraphPad Software).

EGFR (L858R/T790M/C797S) = EGFR (L858R/T790M/C797S) (Homo sapiens, UniProt P00533, C797S/L858R/T790M); assay: HotSpot radiometric kinase assay, inhibition of EGFR L858R/T790M/C797S mutant; format: biochemical; conditions: 33P ATP, room temperature, 120 m
Chain of EGFR (L858R/T790M/C797S) (P00533 25-1210 T790M/C797S/L858R): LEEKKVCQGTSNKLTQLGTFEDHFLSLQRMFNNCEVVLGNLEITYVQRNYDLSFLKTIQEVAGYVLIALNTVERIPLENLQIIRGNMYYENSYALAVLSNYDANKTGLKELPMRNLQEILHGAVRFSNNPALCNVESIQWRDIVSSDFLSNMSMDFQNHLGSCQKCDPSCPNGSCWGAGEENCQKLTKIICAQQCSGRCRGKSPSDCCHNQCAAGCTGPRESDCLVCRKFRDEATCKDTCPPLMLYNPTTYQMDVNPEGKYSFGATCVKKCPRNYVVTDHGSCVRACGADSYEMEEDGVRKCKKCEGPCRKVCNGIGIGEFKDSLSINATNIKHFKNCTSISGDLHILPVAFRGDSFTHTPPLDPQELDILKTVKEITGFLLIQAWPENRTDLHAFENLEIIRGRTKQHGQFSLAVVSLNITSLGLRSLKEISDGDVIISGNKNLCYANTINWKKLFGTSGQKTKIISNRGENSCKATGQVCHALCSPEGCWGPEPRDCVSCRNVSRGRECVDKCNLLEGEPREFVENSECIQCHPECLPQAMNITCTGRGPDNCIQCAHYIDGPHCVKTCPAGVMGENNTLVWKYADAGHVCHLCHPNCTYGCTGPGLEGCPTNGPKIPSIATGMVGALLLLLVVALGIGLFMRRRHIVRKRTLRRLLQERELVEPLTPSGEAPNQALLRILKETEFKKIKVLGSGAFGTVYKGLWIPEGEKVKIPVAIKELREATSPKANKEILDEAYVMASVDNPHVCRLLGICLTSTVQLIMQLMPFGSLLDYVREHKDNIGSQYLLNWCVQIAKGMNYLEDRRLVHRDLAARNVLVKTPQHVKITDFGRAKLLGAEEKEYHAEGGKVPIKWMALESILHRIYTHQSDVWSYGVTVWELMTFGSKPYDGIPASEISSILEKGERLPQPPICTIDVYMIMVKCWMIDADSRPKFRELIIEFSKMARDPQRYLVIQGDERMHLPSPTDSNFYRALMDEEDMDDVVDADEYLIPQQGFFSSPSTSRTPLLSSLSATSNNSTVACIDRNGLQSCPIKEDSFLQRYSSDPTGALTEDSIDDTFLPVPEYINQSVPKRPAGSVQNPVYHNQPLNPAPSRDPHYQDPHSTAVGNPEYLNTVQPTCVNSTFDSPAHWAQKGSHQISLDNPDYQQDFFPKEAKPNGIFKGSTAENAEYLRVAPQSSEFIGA
How it was run: (§3)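 Radiometric filter-binding format: ATP plus 33P-ATP ([…]) was added about 20 min after compound to kinase and substrate in HEPES pH 7.5 buffer with Mg2+, EGTA, Brij35, BSA, vanadate, DTT and 1% DMSO. After 120 min at room temperature, reactions were spotted on P81 paper and washed in phosphoric acid; IC50 values fitted.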

HCC827 cells = assay: 5-Day CellTiter Glo (CTG) cell proliferation assay, HCC827; format: cell-based; conditions: Homo sapiens; HCC827 cells (d746-750 EGFR), 5-day CTG proliferation, 120 hours; read-out: HCC827 IC50
How it was run: (§4)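 Proliferation of EGFR-driven NSCLC cells was scored as CellTiter-Glo 2.0 luminescence after a 5-day (120 h) incubation with compounds in 9 doses. IC50 values came from the dose-response curves.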

EGFR (D746-750) = EGFR (D746-750) (Homo sapiens, UniProt P00533, DEL746-750); assay: HotSpot radiometric kinase assay, inhibition of EGFR 746-750 mutant; format: biochemical; conditions: 33P ATP, room temperature, 120 m
How it was run: as §3

[1] = target: T1, pEGFR, NCI-H1975 cells (L858R/T790M EGFR) (Homo sapiens, UniProt P00533, L858R/T790M); assay: Cellular EGFR phosphorylation assay (LANCE Ultra TR-FRET) in NCI-H1975 cells; format: cell-based; conditions: 4 hours at 37° C., read-out: H1975 pEGFR IC50
T1 construct: pEGFR (Tyr1068) TR-FRET
T1 sequence (P00533 25-1210 T790M/L858R): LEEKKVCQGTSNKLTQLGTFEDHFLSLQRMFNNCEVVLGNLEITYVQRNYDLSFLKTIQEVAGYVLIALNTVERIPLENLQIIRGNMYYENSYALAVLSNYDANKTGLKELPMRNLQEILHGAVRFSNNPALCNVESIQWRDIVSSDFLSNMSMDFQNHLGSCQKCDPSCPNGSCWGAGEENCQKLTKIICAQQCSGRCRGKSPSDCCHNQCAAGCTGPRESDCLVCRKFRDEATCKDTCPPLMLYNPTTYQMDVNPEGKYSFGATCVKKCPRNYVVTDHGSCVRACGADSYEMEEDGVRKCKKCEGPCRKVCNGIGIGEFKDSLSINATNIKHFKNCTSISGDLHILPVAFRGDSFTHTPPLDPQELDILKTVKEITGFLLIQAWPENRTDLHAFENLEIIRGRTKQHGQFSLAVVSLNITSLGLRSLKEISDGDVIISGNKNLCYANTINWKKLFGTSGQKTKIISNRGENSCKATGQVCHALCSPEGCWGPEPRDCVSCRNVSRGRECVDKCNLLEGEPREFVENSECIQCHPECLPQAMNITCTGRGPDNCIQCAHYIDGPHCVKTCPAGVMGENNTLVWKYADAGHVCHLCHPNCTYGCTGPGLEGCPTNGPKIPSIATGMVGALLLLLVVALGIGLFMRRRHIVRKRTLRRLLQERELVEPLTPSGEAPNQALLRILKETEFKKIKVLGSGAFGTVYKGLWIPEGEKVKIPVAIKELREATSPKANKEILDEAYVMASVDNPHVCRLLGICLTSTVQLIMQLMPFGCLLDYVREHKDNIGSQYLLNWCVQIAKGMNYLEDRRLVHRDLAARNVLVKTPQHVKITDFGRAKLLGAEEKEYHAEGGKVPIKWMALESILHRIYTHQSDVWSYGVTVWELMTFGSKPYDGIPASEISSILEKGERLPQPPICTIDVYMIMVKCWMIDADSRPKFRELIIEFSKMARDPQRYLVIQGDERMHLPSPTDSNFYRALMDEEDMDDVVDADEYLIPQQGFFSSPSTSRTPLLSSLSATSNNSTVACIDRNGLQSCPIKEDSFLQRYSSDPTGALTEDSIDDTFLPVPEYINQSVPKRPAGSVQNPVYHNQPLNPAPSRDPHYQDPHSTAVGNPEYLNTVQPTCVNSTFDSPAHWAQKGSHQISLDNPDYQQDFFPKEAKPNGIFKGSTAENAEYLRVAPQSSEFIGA
How it was run: (§5)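 PC-9 and NCI-H1975 cells (50 thousand/well) or A431 cells (30 thousand/well) treated next day for 4 h at 37° C with a 9-dose 3-fold titration; A431 stimulated with 40 ng/mL EGF for the final 10 min. Lysate phospho-EGFR (Tyr1068) read by LANCE Ultra TR-FRET; IC50 derived.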

EGFR (L858R/T790M) = EGFR (L858R/T790M) (Homo sapiens, UniProt P00533, L858R/T790M); assay: HotSpot radiometric kinase assay, inhibition of EGFR L858R/T790M mutant; format: biochemical; conditions: 33P ATP, room temperature, 120 m
Chain of EGFR (L858R/T790M) (P00533 25-1210 T790M/L858R): as above
Method: as §1, §2

EGFR (D746-750/C797S) = EGFR (D746-750/C797S) (Homo sapiens, UniProt P00533, C797S/DEL746-750); assay: HotSpot radiometric kinase assay, inhibition of EGFR 746-750/C797S mutant; format: biochemical; conditions: 33P ATP, room temperature, 120 m
How it was run: as §3

[2] = target: T2, pEGFR, PC-9 cells (d746-750 EGFR) (Homo sapiens, UniProt P00533, DEL746-750); assay: Cellular EGFR phosphorylation assay (LANCE Ultra TR-FRET) in PC-9 cells; format: cell-based; conditions: 4 hours at 37° C., read-out: PC-9 pEGFR IC50
T2 construct: pEGFR (Tyr1068) TR-FRET
How it was run: as §5

[3] = target: T3, pEGFR, A431 cells (wildtype EGFR) (Homo sapiens, UniProt P00533); assay: Cellular EGFR phosphorylation assay (LANCE Ultra TR-FRET) in A431 cells; format: cell-based; conditions: 4 hours at 37° C., 40 ng/mL EGF for the final 10 minutes, read-out: A431 pEGFR IC50
T3 construct: pEGFR (Tyr1068) TR-FRET
How it was run: as §5

PC-9 cells = assay: 5-Day CellTiter Glo (CTG) cell proliferation assay, PC-9; format: cell-based; conditions: Homo sapiens; PC-9 cells (d746-750 EGFR), 5-day CTG proliferation, 120 hours; read-out: PC-9 IC50
How it was run: as §4

EGFR WT = EGFR WT (Homo sapiens, UniProt P00533); assay: HotSpot radiometric kinase assay, inhibition of EGFR WT; format: biochemical; conditions: 33P ATP, room temperature, 120 m
Chain of EGFR WT (P00533 25-1210): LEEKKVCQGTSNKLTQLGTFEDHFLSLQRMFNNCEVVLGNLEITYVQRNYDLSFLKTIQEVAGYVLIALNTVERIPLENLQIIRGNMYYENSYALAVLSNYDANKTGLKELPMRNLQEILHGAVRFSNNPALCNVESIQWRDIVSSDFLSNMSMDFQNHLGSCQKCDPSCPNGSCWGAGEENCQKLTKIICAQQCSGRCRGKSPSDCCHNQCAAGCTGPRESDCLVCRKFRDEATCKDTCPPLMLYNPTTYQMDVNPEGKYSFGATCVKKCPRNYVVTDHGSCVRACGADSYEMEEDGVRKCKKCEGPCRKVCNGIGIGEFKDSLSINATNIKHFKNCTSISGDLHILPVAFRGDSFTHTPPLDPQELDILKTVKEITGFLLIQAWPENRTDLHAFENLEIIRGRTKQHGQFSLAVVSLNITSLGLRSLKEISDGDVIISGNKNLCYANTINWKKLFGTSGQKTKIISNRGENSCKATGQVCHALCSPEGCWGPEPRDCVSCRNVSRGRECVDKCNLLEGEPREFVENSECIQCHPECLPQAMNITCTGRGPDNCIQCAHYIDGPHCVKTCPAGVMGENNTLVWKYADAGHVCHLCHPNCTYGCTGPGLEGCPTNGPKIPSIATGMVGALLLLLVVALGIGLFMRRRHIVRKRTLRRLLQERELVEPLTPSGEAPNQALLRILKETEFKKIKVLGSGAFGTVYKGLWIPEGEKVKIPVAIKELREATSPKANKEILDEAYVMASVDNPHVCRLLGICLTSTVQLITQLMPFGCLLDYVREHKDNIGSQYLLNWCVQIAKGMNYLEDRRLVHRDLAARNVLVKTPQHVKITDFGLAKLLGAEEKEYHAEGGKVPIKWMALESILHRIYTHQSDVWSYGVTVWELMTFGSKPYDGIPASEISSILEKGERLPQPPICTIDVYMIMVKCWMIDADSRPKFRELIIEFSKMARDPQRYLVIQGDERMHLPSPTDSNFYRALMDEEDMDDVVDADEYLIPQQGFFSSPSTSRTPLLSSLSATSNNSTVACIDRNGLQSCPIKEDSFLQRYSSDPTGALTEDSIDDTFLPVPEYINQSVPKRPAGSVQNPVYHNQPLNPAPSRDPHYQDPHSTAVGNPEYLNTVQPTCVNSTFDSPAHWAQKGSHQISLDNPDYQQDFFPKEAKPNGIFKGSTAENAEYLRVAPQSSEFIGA
Method: as §1, §2

NCI-H1975 cells = assay: 5-Day CellTiter Glo (CTG) cell proliferation assay, NCI-H1975; format: cell-based; conditions: Homo sapiens; NCI-H1975 cells (L858R/T790M EGFR), 5-day CTG proliferation, 120 hours; read-out: H1975 IC50
How it was run: as §4

EGFR (D770_N771insNPG) = EGFR (D770_N771insNPG) (Homo sapiens, UniProt P00533, INS770NPG); assay: HotSpot radiometric kinase assay, inhibition of EGFR (D770_N771insNPG) mutant; format: biochemical; conditions: 33P ATP, room temperature, 120 m
How it was run: as §3

[4] = system: BaF3 cells with engineered EGFR L858R/C797S; assay: 3-Day CellTiter Glo (CTG) cell proliferation assay, BaF3 EGFR L858R/C797S; format: cell-based; conditions: Mus musculus, 3-day CTG proliferation, 72 hours
How it was run: (§6)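 Luminescent ATP read-out (CellTiter-Glo 2.0) after 72 h compound exposure gives IC50 values. BaF3 transgenic cells, one thousand per well, received a nine-dose series and were kept at 37 °C under 5% CO2.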

[5] = system: BaF3 cells with engineered EGFR L858R/T790M/C797S; assay: 3-Day CellTiter Glo (CTG) cell proliferation assay, BaF3 EGFR L858R/T790M/C797S; format: cell-based; conditions: Mus musculus, 3-day CTG proliferation, 72 hours
How it was run: as §6

Structure (SMILES) | IC50 (EGFR (L858R)) [nM] | IC50 (EGFR (L858R/T790M/C797S)) [nM] | IC50 (HCC827 cells) [nM] | IC50 (EGFR (D746-750)) [nM] | IC50 [1] [nM] | IC50 (EGFR (L858R/T790M)) [nM] | IC50 (EGFR (D746-750/C797S)) [nM] | IC50 [2] [nM] | IC50 [3] [nM] | IC50 (PC-9 cells) [nM] | IC50 (EGFR WT) [nM] | IC50 (NCI-H1975 cells) [nM] | IC50 (EGFR (D770_N771insNPG)) [nM] | IC50 [4] [nM] | IC50 [5] [nM]
CC(C)Oc1nn(CCO)c2c1/C=C/c1n[nH]c3cnc(cc13)-c1cnn(C)c1O[C@@H](C)CN(C)C2 [Ex. 5, 2-[(10S,17E)-8,10,12-trimethyl-16-[(propan-2-yl)oxy]-2,8,10,11,12,13-hexahydro-14H-5,3-(azenometheno)tripyrazolo[3,4-f:3′,4′-j:4″,3″-n][1,4]oxazacyclopentadecin-14-yl]ethan-1-ol] | 0.13 | 0.1 | 0.99 | 0.08 | 3.99 | 0.11 | 0.45 | 6.4 | 29.2 | 33.5 | 0.08 | 4.88 | 0.08 |  | 
CCOc1nn(CCO)c2c1/C=C/c1n[nH]c3cnc(cc13)-c1cnn(C)c1O[C@H](C)CN(CC)C2 [Ex. 6, 2-[(10R,17E)-16-ethoxy-12-ethyl-8,10-dimethyl-2,8,10,11,12,13-hexahydro-14H-5,3-(azenometheno)tripyrazolo[3,4-f:3′,4′-j:4″,3″-n][1,4]oxazacyclopentadecin-14-yl]ethan-1-ol] | 0.16 | 0.12 | 1.98 | 0.09 | 10.9 | 0.15 | 0.49 | 6.85 | 42.7 | 27.6 | 0.13 | 28 | 0.07 |  | 
CCOc1nn(CCO)c2c1/C=C/c1n[nH]c3cnc(cc13)-c1cnn(C)c1OC[C@H](C)N(CC)C2 [Ex. 7, 2-[(11S,17E)-16-ethoxy-12-ethyl-8,11-dimethyl-2,8,10,11,12,13-hexahydro-14H-5,3-(azenometheno)tripyrazolo[3,4-f:3′,4′-j:4″,3″-n][1,4]oxazacyclopentadecin-14-yl]ethan-1-ol] | 0.89 | 0.23 | 5.17 | 0.29 | 14.2 | 0.28 | 0.74 | 24.3 | 70.9 | 59.7 | 1.16 | 47.4 | 1.09 |  | 
CCN1Cc2c(c(OC(C)C)nn2CCO)/C=C/c2n[nH]c3cnc(cc23)-c2cnn(C)c2O[C@@H](C)C1 [Ex. 9, 2-[(10S,17E)-12-ethyl-8,10-dimethyl-16-[(propan-2-yl)oxy]-2,8,10,11,12,13-hexahydro-14H-5,3-(azenometheno)tripyrazolo[3,4-f:3′,4′-j:4″,3″-n][1,4]oxazacyclopentadecin-14-yl]ethan-1-ol] | 0.45 | 0.49 | 0.39 | 0.67 | 4.19 | 0.45 | 0.33 | 3.48 | 19.8 | 12.1 | 0.18 | 3.22 | 0.29 | 0.19 | 0.93
CCOc1nn(CCO)c2c1/C=C/c1n[nH]c3cnc(cc13)-c1cnn(C)c1O[C@@H](C)CN(C(C)C)C2 [Ex. 11, 2-[(10S,17E)-16-ethoxy-8,10-dimethyl-12-(propan-2-yl)-2,8,10,11,12,13-hexahydro-14H-5,3-(azenometheno)tripyrazolo[3,4-f:3′,4′-j:4″,3″-n][1,4]oxazacyclopentadecin-14-yl]ethan-1-ol] | 0.38 | 0.43 | 0.25 | 0.52 | 5.25 | 0.44 | 0.31 | 2.86 | 16.1 | 3.65 | 0.1 | 3.14 | 0.23 | 0.16 | 0.83
CCOc1nn(CCO)c2c1/C=C/c1n[nH]c3cnc(cc13)-c1cnn(C)c1O[C@H](C)CN(C(C)C)C2 [Ex. 12, 2-[(10R,17E)-16-ethoxy-8,10-dimethyl-12-(propan-2-yl)-2,8,10,11,12,13-hexahydro-14H-5,3-(azenometheno)tripyrazolo[3,4-f:3′,4′-j:4″,3″-n][1,4]oxazacyclopentadecin-14-yl]ethan-1-ol] | 0.62 | 0.44 | 2.25 | 0.58 | 3.64 | 0.43 | 0.31 | 6.38 | 40.7 | 13.8 | 0.39 | 22.2 | 0.42 | 0.78 | 1.36
CCOc1nn([C@@H](C)CO)c2c1/C=C/c1n[nH]c3cnc(cc13)-c1cnn(C)c1O[C@@H](C)CN(C)C2 [Ex. 19, (2S)-2-[(10S,17E)-16-ethoxy-8,10,12-trimethyl-2,8,10,11,12,13-hexahydro-14H-5,3-(azenometheno)tripyrazolo[3,4-f:3′,4′-j:4″,3″-n][1,4]oxazacyclopentadecin-14-yl]propan-1-ol] | 0.2 | 1.78 | 0.28 | 0.14 | 2.85 | 0.37 | 0.6 | 2.54 | 10 | 2.74 | 0.15 | 1.51 | 0.19 | 0.16 | 0.79
